In patent publication US20240301409A1, “Chemically Modified Small Activating RNA” (RACTIGEN THERAPEUTICS, priority 2021, published 2024):

System: T24 cells
Assay: Cellular proliferation assay (CCK8) in T24 cells, alone and combined with Mitomycin C or valrubicin
Format: cell-based, human
Procedure, shortened: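 Cells transfected with saRNA RAG1-40-31 (0.1–50 nM) for 24 h, then Mitomycin C or valrubicin (1–10000 nM) added in paired concentrations; single-agent saRNA at 10 nM for 72 h. Viability by CCK8 absorbance at 450 nm after 1 h at 37 °C, as % of blank transfection control.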

RAG1-40-31: saRNA duplex: sense fCfCAACUCAUUCUCCAAG*U*C (SEQ ID NO 16); antisense U*A*fCfUfUGGAGAAfUGAGfUfUGG*fC*A (SEQ ID NO 12) (sense CCAACUCAUUCUCCAAGUC; antisense UACUUGGAGAAUGAGUUGGCA; 2'-F and phosphorothioate modifications; modified_base (1)..(2) (1,2)=2′-fluoro; modified_base (17)..(19) (17,18,19)=phosphorothioate (PS) backbone modification; modified_base (2)..(21) (2,3,19,20,21)=phosphorothioate (PS) backbone modification; modified_base (3)..(20) (3,4,5,12,16,17,20)=2′-fluoro)
Relative proliferation proportion of T24 cells (RAG1-40-31 50 nM + valrubicin 1000 nm): 10.9%
Relative proliferation proportion of T24 cells (RAG1-40-31 50 nM + valrubicin 10000 nm): 3.1%
Relative proliferation proportion of T24 cells (RAG1-40-31 50 nM, Control (no MMC)): 14.7%
Relative proliferation proportion of T24 cells (RAG1-40-31 50 nM, Control (no valrubicin)): 13.8%
Combination Index (CI) (T24 cells, RAG1-40-31 0.1 nM + MMC 1 nM): 0.42
Combination Index (CI) (T24 cells, RAG1-40-31 0.1 nM + MMC 10 nM): 1.59
Combination Index (CI) (T24 cells, RAG1-40-31 0.1 nM + MMC 100 nM): 0.64
Combination Index (CI) (T24 cells, RAG1-40-31 0.1 nM + MMC 1000 nM): 0.49
Combination Index (CI) (T24 cells, RAG1-40-31 0.1 nM + MMC 10000 nM): 1.05
Combination Index (CI) (T24 cells, RAG1-40-31 0.1 nM + Valrubicin 10000 nM): 0.38
Combination Index (CI) (T24 cells, RAG1-40-31 0.1 nM + valrubicin 1 nM): 1.9
Combination Index (CI) (T24 cells, RAG1-40-31 0.1 nM + valrubicin 10 nM): 17.16
Combination Index (CI) (T24 cells, RAG1-40-31 0.1 nM + valrubicin 100 nM): 11.04
Combination Index (CI) (T24 cells, RAG1-40-31 0.1 nM + valrubicin 1000 nM): 1.48
Combination Index (CI) (T24 cells, RAG1-40-31 0.5 nM + MMC 1 nM): 0.97
Combination Index (CI) (T24 cells, RAG1-40-31 0.5 nM + MMC 10 nM): 1.40
Combination Index (CI) (T24 cells, RAG1-40-31 0.5 nM + MMC 100 nM): 0.67
Combination Index (CI) (T24 cells, RAG1-40-31 0.5 nM + MMC 1000 nM): 0.46
Combination Index (CI) (T24 cells, RAG1-40-31 0.5 nM + MMC 10000 nM): 1.06
Combination Index (CI) (T24 cells, RAG1-40-31 0.5 nM + Valrubicin 10000 nM): 0.4
Combination Index (CI) (T24 cells, RAG1-40-31 0.5 nM + valrubicin 1 nM): 2.71
Combination Index (CI) (T24 cells, RAG1-40-31 0.5 nM + valrubicin 10 nM): 6.02
Combination Index (CI) (T24 cells, RAG1-40-31 0.5 nM + valrubicin 100 nM): 8.68
Combination Index (CI) (T24 cells, RAG1-40-31 0.5 nM + valrubicin 1000 nM): 0.92
Combination Index (CI) (T24 cells, RAG1-40-31 1 nM + MMC 1 nM): 0.96
Combination Index (CI) (T24 cells, RAG1-40-31 1 nM + MMC 10 nM): 0.88
Combination Index (CI) (T24 cells, RAG1-40-31 1 nM + MMC 100 nM): 0.69
Combination Index (CI) (T24 cells, RAG1-40-31 1 nM + MMC 1000 nM): 0.41
Combination Index (CI) (T24 cells, RAG1-40-31 1 nM + MMC 10000 nM): 0.84
Combination Index (CI) (T24 cells, RAG1-40-31 1 nM + Valrubicin 10000 nM): 0.33
Combination Index (CI) (T24 cells, RAG1-40-31 1 nM + valrubicin 1 nM): 1.23
Combination Index (CI) (T24 cells, RAG1-40-31 1 nM + valrubicin 10 nM): 0.92
Combination Index (CI) (T24 cells, RAG1-40-31 1 nM + valrubicin 100 nM): 1.02
Combination Index (CI) (T24 cells, RAG1-40-31 1 nM + valrubicin 1000 nM): 0.93
Combination Index (CI) (T24 cells, RAG1-40-31 5 nM + MMC 1 nM): 0.61
Combination Index (CI) (T24 cells, RAG1-40-31 5 nM + MMC 10 nM): 0.60
Combination Index (CI) (T24 cells, RAG1-40-31 5 nM + MMC 100 nM): 0.45
Combination Index (CI) (T24 cells, RAG1-40-31 5 nM + MMC 1000 nM): 0.24
Combination Index (CI) (T24 cells, RAG1-40-31 5 nM + MMC 10000 nM): 0.46
Combination Index (CI) (T24 cells, RAG1-40-31 5 nM + Valrubicin 10000 nM): 0.12
Combination Index (CI) (T24 cells, RAG1-40-31 5 nM + valrubicin 1 nM): 0.73
Combination Index (CI) (T24 cells, RAG1-40-31 5 nM + valrubicin 10 nM): 0.59
Combination Index (CI) (T24 cells, RAG1-40-31 5 nM + valrubicin 100 nM): 0.99
Combination Index (CI) (T24 cells, RAG1-40-31 5 nM + valrubicin 1000 nM): 0.47
Combination Index (CI) (T24 cells, RAG1-40-31 10 nM + MMC 1 nM): 0.52
Combination Index (CI) (T24 cells, RAG1-40-31 10 nM + MMC 10 nM): 0.77
Combination Index (CI) (T24 cells, RAG1-40-31 10 nM + MMC 100 nM): 0.47
Combination Index (CI) (T24 cells, RAG1-40-31 10 nM + MMC 1000 nM): 0.19
Combination Index (CI) (T24 cells, RAG1-40-31 10 nM + MMC 10000 nM): 0.30
Combination Index (CI) (T24 cells, RAG1-40-31 10 nM + Valrubicin 10000 nM): 0.09
Combination Index (CI) (T24 cells, RAG1-40-31 10 nM + valrubicin 1 nM): 0.82
Combination Index (CI) (T24 cells, RAG1-40-31 10 nM + valrubicin 10 nM): 0.62
Combination Index (CI) (T24 cells, RAG1-40-31 10 nM + valrubicin 100 nM): 0.83
Combination Index (CI) (T24 cells, RAG1-40-31 10 nM + valrubicin 1000 nM): 0.63
Combination Index (CI) (T24 cells, RAG1-40-31 25 nM + MMC 1 nM): 0.92
Combination Index (CI) (T24 cells, RAG1-40-31 25 nM + MMC 10 nM): 1.38
Combination Index (CI) (T24 cells, RAG1-40-31 25 nM + MMC 100 nM): 0.73
Combination Index (CI) (T24 cells, RAG1-40-31 25 nM + MMC 1000 nM): 0.28
Combination Index (CI) (T24 cells, RAG1-40-31 25 nM + MMC 10000 nM): 0.36
Combination Index (CI) (T24 cells, RAG1-40-31 25 nM + Valrubicin 10000 nM): 0.1
Combination Index (CI) (T24 cells, RAG1-40-31 25 nM + valrubicin 1 nM): 0.97
Combination Index (CI) (T24 cells, RAG1-40-31 25 nM + valrubicin 10 nM): 1.25
Combination Index (CI) (T24 cells, RAG1-40-31 25 nM + valrubicin 100 nM): 1.25
Combination Index (CI) (T24 cells, RAG1-40-31 25 nM + valrubicin 1000 nM): 0.67
relative proliferation proportions of cells (T24 cells, RAG1-40-31 25 nM and 50 nM + Mitomycin C 1, 10, 100, 1000 and 10000 nM): lower than 21%
relative proliferation proportion of cells (T24 cells, RAG1-40-31 25 nM and 50 nM + valrubicin 1, 10, 100, 1000 and 10000 nM): lower than 21%
Combination Index (CI) (T24 cells, RAG1-40-31 50 nM + MMC 1 nM): 2.59
Combination Index (CI) (T24 cells, RAG1-40-31 50 nM + MMC 10 nM): 2.60
Combination Index (CI) (T24 cells, RAG1-40-31 50 nM + MMC 100 nM): 1.31
Combination Index (CI) (T24 cells, RAG1-40-31 50 nM + MMC 1000 nM): 0.50
Combination Index (CI) (T24 cells, RAG1-40-31 50 nM + MMC 10000 nM): 0.47
Combination Index (CI) (T24 cells, RAG1-40-31 50 nM + Valrubicin 10000 nM): 0.19
Combination Index (CI) (T24 cells, RAG1-40-31 50 nM + valrubicin 1 nM): 2.12
Combination Index (CI) (T24 cells, RAG1-40-31 50 nM + valrubicin 10 nM): 2.3
Combination Index (CI) (T24 cells, RAG1-40-31 50 nM + valrubicin 100 nM): 2.3
Combination Index (CI) (T24 cells, RAG1-40-31 50 nM + valrubicin 1000 nM): 1.04
relative proliferation proportions of cells (T24 cells, RAG1-40-31 0.1-50 nM + Mitomycin C 1000 and 10000 nM): lower than 18%
relative proliferation proportions of cells (T24 cells, RAG1-40-31 0.1-50 nM + valrubicin 1000 nM and 10000 nM): lower than 60%
relative proliferation proportions of cells (T24 cells, RAG1-40-31 5-50 nM + Mitomycin C 1, 10, 100, 1000 and 10000 nM): lower than 40%
relative proliferation proportions of cells (T24 cells, RAG1-40-31 5-50 nM + valrubicin 1, 10, 100, 1000 and 10000 nM): lower than 40%
effect of combined use with Mitomycin C or valrubicin, in words (T24 tumor cells): synergistic effect
